Laboratory results published in patent US20130324522A1, “INSECT ODORANT RECEPTOR ANTAGONISTS” (THE ROCKEFELLER UNIVERSITY, priority 2010, published 2013).
pIC50: −log10 of the molar value. Read-outs that look alike come from different tables or passages of the source.

Legend:
Type in all cases: cell-based
[1] = target: OR8/OR7 (Anopheles gambiae, UniProt Q7PUT5+Q7QCC7); assay: Ca2+-imaging of stable HEK293T cell line OR8/OR7; details: for inhibition at 4 µM: HEK-293T, read-out: Percent Inhibition OR8 OR7; for pIC50: Table B, read-out: IC50 OR8
Chain of OR8/OR7 (Q7QCC7 whole entry): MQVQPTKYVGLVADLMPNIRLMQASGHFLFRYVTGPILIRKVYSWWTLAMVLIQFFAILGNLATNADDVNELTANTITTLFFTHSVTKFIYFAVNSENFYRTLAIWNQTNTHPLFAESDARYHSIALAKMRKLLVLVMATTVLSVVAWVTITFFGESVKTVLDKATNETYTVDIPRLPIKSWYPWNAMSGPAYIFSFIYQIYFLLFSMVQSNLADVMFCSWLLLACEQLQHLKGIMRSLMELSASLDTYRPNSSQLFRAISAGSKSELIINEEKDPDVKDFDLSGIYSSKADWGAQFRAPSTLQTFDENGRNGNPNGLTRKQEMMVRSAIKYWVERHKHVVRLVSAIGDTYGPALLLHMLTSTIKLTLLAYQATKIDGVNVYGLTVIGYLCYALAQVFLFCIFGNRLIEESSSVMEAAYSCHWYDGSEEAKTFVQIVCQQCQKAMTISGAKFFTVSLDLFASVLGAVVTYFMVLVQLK
Chain of OR8/OR7 (Q7PUT5 entry or part of it): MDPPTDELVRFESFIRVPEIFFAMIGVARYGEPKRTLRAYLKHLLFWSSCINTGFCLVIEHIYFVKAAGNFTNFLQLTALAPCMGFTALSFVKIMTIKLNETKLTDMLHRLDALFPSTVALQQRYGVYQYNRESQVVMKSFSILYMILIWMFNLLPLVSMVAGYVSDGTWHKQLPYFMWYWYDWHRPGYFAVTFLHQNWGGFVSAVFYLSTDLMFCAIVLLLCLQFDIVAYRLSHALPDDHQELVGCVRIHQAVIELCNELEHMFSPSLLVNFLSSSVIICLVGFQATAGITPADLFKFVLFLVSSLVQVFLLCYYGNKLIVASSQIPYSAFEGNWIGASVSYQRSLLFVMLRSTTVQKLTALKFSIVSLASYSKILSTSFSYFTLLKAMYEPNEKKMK
Experimental: (§1) Full-length cDNAs for mosquito (Anopheles gambiae) odorant receptor (OR1, OR2, OR7, OR8, OR28), and fly (Drosophila melanogaster) odorant receptor (Or47a, Or83b), mouse TRP channel (TRPM8), and mouse serotonin receptor (5HT3) were obtained and subcloned into mammalian expression vectors. The following mammalian expression vectors were used:
Stable cell lines OR1/OR7, OR2/OR7, OR8/OR7, OR10/OR7, OR28/OR7 and TRPM8 were generated from HEK293T cells. HEK293T-based cell lines were cultured in DMEM supplemented with these additional antibiotics: 6 μg/mL blasticidin and 1 μg/mL puromycin, with the exception of the TRPM8 cell lines, which was cultured in DMEM supplemented with 1 μg/mL puromycin.
Cells were trypsinized and split into 35 mm dishes one day before transfection. Confluent cells (60-70%) in 35 mm dishes were transfected with 1 μg of insect OR(X) plasmids in pME18s-bla and 1 μg of OR7-pME18s-puro using lipofectamine 2000. For Anopheles odorant receptors, two plasmids were co-transfected into HEK cells: the ligand-specific receptor (OR1, OR2, OR8, OR28) and the corresponding olfactory co-receptor: OR7. Cell lines containing TRPM8 were transfected with single plasmid.
(§2) Stable cell lines were cultured in 10 cm dishes, and confluent cells (70-80%) were trypsinized. 10,000 cells/20 μL were transferred into each well of 384-well plates coated with poly-D-lysine, and cultured for 2 days. For Flip-In T-Rex cells (cell lines expressing Or47a/Or83b and 5HT3), 5 μL of tetracycline (5 μg/mL) were added 1 day before the assay. 20 μL of Ca-4 dye was loaded into each well for 1.5 hr at room temperature in the dark, and the dye-loaded plates were subjected to Ca^2+-imaging using a Hamamatsu FDSS6000 real time fluorescence plate reader. Odorant solutions (9× final concentration) were prepared by dissolving 1M stock solutions into Hank's Buffered Salt Solution (HBSS), and 30 μL of odor solution was transferred to each well in 384-well plates.
(§3) Compounds ([…] in DMSO) were stored in 384-well plates, and last two columns (32 wells total) contained only DMSO. 200 nL of small compounds were transferred into the odorant plates before the assay using the Perkin-Elmer Janus workstation. The odorant plates were spun down to remove air bubbles, and placed on the FDSS6000 plate loader, and 5 μL of odorant solution was applied to the cell plate on the FDSS6000. Ca^2+ increase was monitored with fluorescence at 525 nm by excitation at 485 nm.

[2] = target: T1, serotonin receptor (5HT3) (Mus musculus, UniProt P23979); assay: Ca2+-imaging of stable Flip-In T-Rex cell line 5HT3; details: for inhibition at 4 µM: read-out: Percent Inhibition 5HT3; for pIC50: Table B, read-out: IC50 5HT3
T1 construct: Full-length cDNAs for mosquito (Anopheles gambiae) odorant receptor; expressed in transfected cells
T1 sequence (P23979 24-489): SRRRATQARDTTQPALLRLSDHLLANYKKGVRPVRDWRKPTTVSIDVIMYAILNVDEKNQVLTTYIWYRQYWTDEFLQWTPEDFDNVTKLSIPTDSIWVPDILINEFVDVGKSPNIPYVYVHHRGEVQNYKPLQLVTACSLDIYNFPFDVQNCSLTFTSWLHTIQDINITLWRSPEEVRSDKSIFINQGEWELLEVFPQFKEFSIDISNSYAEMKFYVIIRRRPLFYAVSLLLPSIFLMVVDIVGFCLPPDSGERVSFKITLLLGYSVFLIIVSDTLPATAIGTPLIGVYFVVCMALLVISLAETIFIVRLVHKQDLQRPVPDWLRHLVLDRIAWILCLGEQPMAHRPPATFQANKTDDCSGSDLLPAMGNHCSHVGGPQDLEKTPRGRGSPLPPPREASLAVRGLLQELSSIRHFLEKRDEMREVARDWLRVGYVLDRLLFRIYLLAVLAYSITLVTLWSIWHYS
Experimental: as §1
Stable cell lines Or47a/Or83b and 5HT3 were generated from Flip-In T-Rex cells. Flip-In T-Rex-based cell lines were cultured in DMEM supplemented with these additional antibiotics: 6 μg/mL blasticidin and 100 μg/mL hygromycin.
Cells were trypsinized and split into 35 mm dishes 1 day before transfection. Confluent cells (60-70%) in 35 mm dishes were co-transfected with 1 μg of Or47a/Or83b plasmid in pcDNA5/FRT/TO/IRES plus the pOG44 plasmid or 1 μg of 5HT3 plasmid in pcDNA5/FRT/TO plus the pOG44 plasmid using lipofectamine 2000. Co-transfection of pOG44 and pcDNA5/FRT/TO/IRES or pcDNA5/FRT/TO allows expression of Flp recombinase and integration of the pcDNA5 plasmid into the genome via the FRT site. After one day of incubation, the transfected cells were transferred into 10 cm dishes with DMEM containing antibiotics: 20 μg/mL of hygromycin and 6 μg/mL of blasticidin. The concentration of Hygromycin was increased to 100 μg/mL when the population of cells became 30-40% confluent. The cells were cultured by changing medium every two days until cell clumps appeared. The clumps were picked and transferred into 96 well plates with DMEM containing 100 μg/mL of Hygromycin and 6 μg/mL of blasticidin. The cells were grown and transferred to 24 well plates, and ligand-evoked calcium increases were tested using the Hamamatsu FDSS6000 real time fluorescence plate reader.
as §2, §3

[3] = target: T2, mOREG (Mus musculus, UniProt Q920P2); assay: Ca2+-imaging, control receptor mOREG; details: read-out: Percent Inhibition mOREG
T2 sequence (Q920P2 1-313): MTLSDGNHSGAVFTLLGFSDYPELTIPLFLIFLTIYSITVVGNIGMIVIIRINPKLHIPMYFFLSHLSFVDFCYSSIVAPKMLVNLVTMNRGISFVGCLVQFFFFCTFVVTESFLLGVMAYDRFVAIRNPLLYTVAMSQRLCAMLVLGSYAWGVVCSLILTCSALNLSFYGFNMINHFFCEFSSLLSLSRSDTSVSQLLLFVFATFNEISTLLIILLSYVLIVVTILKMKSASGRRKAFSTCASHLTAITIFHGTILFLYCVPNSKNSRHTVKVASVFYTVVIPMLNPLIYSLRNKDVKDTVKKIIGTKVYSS
Experimental: as §2, with “plates. The last two columns of the plate (32 wells total) were used as control wells as follows: • negative control with HBSS buffer (16 wells) • positive control with ligands (16 wells).” for “plates.”
as §3

Row | SMILES | inhibition at 4 µM ([1]; compound applied at 4 μM) | inhibition at 4 µM ([2]; compound applied at 4 μM) | inhibition at 4 µM ([3]; compound applied at 4 μM) | pIC50 [2] | pIC50 [1] | inhibition at 4 µM [1] | inhibition at 4 µM [2] | inhibition at 4 µM [3]
1 | COc1ccc(-n2c(Cc3ccccc3)nnc2SCCCC(=O)N2CCN(C(=O)c3ccc(C(F)(F)F)cc3)C(C)C2)cc1 (stereo not shown) [RU-0071828] | < 25% | 26 to 50% | 26 to 50% | – | – | – | – | –
2 | O=C(c1cccnc1Cl)N1CCOC(COCc2c(Cl)cccc2Cl)C1 (stereo not shown) [RU-0050372] | < 25% | < 25% | < 25% | – | – | – | – | –
3 | COCCN(Cc1nccn1Cc1c(F)cccc1Cl)C(=O)CCc1ccccc1 [RU-0058550] | < 25% | < 25% | 26 to 50% | – | – | – | – | –
4 | Cc1ccc(-c2nnc(SCCCC(=O)N3CCN(C(=O)c4cccc(F)c4)C(C)C3)n2-c2ccc(C)cc2)cc1 (stereo not shown) [RU-0071789] | < 25% | 26 to 50% | 26 to 50% | – | – | – | – | –
5 | Cc1cc(C)c(Cn2ccnc2CN(C(=O)c2ccccc2F)C(C)C)c(C)c1 [RU-0048001] | 26 to 50% | < 25% | 26 to 50% | – | – | – | – | –
6 | CCN(C)c1onc(-c2ccccc2)c1CN(CCCOC)C(=O)c1ccco1 [RU-0051926] | < 25% | 51 to 74% | < 25% | 6.00 to 7.00 | – | – | – | –
7 | CCOC(=O)C1CCCN(C(=O)c2csc(CSc3nnc(-c4cccc(OC)c4)n3-c3ccc(C)cc3)n2)C1 (stereo not shown) [RU-0071628] | 26 to 50% | 26 to 50% | 26 to 50% | – | – | – | – | –
8 | N#Cc1ccccc1C(=O)N1CCOC(COCc2c(Cl)cccc2Cl)C1 (stereo not shown) [RU-0050405] | 26 to 50% | < 25% | < 25% | – | – | – | – | –
9 | O=C(c1ccco1)N(Cc1nccn1Cc1c(F)cccc1Cl)C1CC1 [RU-0048046] | < 25% | < 25% | < 25% | – | – | – | – | –
10 | O=C(Cc1cccc(F)c1)N1CCOC(COCc2c(Cl)cccc2Cl)C1 (stereo not shown) [RU-0050398] | < 25% | < 25% | < 25% | – | – | – | – | –
11 | O=C(c1ccco1)N(Cc1ccco1)Cc1nccn1Cc1ccccc1F [RU-0047694] | 51 to 74% | 26 to 50% | < 25% | – | 6.00 to 7.00 | – | – | –
12 | CCN(CC)C(=O)Oc1ccc2c(ccn2Cc2ccc(Cl)cc2)c1NC(=O)C1CC1 [RU-0075475] | – | – | – | – | – | < 25% | < 25% | < 25%
13 | O=C(c1cccc(F)c1)N(Cc1c(-c2ccccc2)noc1N1CCCC1)CC1CCCO1 (stereo not shown) [RU-0037434] | 51 to 74% | 26 to 50% | 26 to 50% | – | < 6.00 | – | – | –
14 | Cc1c(C(=O)NCc2ccco2)cnn1-c1ccccc1 [RU-0047765] | < 25% | < 25% | < 25% | – | – | – | – | –
15 | COCCCN(Cc1c(-c2ccccc2)noc1N(C)C(C)C)C(=O)c1ccccc1OC [RU-0037003] | 26 to 50% | 26 to 50% | 26 to 50% | – | – | – | – | –
16 | CC(C)CN(Cc1nccn1Cc1ccc(Cl)cc1Cl)C(=O)c1ccccc1F [RU-0055322] | < 25% | < 25% | 26 to 50% | – | – | – | – | –
17 | COCCN(Cc1c(-c2ccccc2)noc1N1CCSCC1)CC(O)COCc1ccco1 (stereo not shown) [RU-0037278] | 26 to 50% | 26 to 50% | 26 to 50% | – | – | – | – | –
18 | c1ccc(CNc2nc(NCc3ccco3)nc(N3CCOCC3)n2)cc1 [RU-0020050] | > 75% | 26 to 50% | 26 to 50% | – | < 6.00 | – | – | –
19 | O=C(c1ccco1)N(Cc1nccn1Cc1ccccc1Cl)CC1CC1 [RU-0047281] | > 75% | > 75% | 26 to 50% | 6.00 to 7.00 | < 6.00 | – | – | –
20 | COc1ccc(OCC(=O)N2CCOC(Cc3ccccc3)C2)cc1 (stereo not shown) [RU-0050384] | < 25% | < 25% | < 25% | – | – | – | – | –
21 | COCCN(Cc1c(-c2ccccc2)noc1N(C)C1CCCCC1)C(=O)c1ccccc1OC [RU-0037275] | 51 to 74% | 26 to 50% | 26 to 50% | – | < 6.00 | – | – | –
22 | CN(C)c1ccc(C(=O)N2CCOC(COCc3ccccc3F)C2)cc1 (stereo not shown) [RU-0050325] | 26 to 50% | < 25% | < 25% | – | – | – | – | –
